In US9957266B2, “Imidazo[1,2-a]pyridin-7-amine” (Hoffmann-La Roche Inc., priority 2013, dated 2018):

Experiments:
native tau aggregates = assay: TAU radioligand in vitro displacement assay ([^3H]T808, autoradiography); type: binding; conditions: human AD brain sections; radioligand [^3H]T808 10 nM; cold compound 10 nM; 50 mM Tris pH 7.4, room temperature, 30 min
Description: FIG. 3 represents data from the TAU radioligand in vitro displacement assay described below. This in vitro binding assay assesses the affinity of compounds for native tau aggregates. The compounds are co-incubated with the well-established tau specific radioligand [^3H]T808 and the compound's displacement potency of [^3H]T808 binding is determined by in vitro autoradiography using human Alzheimer's disease (AD) brain sections.
This in vitro binding assay assesses the affinity of compounds for native tau aggregates. The compounds are co-incubated with the well-established tau specific radioligand [^3H]T808 and the compound's displacement potency of [^3H]T808 binding is determined by in vitro autoradiography using human Alzheimer's disease (AD) brain sections (see FIG. 3).
AD human brains are purchased from Banner Sun Health Research Institute (Sun City, Ariz., USA). Pathological diagnosis of AD is made according to standard NIA-Reagan Institute criteria based on neuropathological data. The radioligand [^3H]T808 was synthesized in-house ([^3H]-2-[4-(2-Fluoro-ethyl)-piperidin-1-yl]-benzo[4,5]imidazo[1,2-a]pyrimidine, radiochemical purity 99.0%). As a reference cold T808 is used (2-[4-(2-Fluoro-ethyl)-piperidin-1-yl]-benzo[4,5]imidazo[1,2-a]pyrimidine). For the autoradiography FujiFilm Imaging Plates (BAS-IP TR 2025) are exposed to the sections and read with a FujiFilm IP reader (BAS-5000).
Ten μm thick human AD brain sections are generated with a cryostat (Leica CM3050) at −17° C. chamber temperature and −15° C. object temperature. Sections are transferred to Histobond+ microscope slides (Marienfeld Laboratory Glasware). After drying for 3 hours at room temperature the sections are stored at −20° C. The sections are incubated with the radioligand (10 nM) and the respective cold compound (at various concentrations) in 50 mM Tris buffer, pH 7.4 at room temperature for 30 min. After washing 3×10 min at 4° C. in 50 mM Tris buffer, pH 7.4 and 3 quick dips in H2O dist. at 4° C. the sections are dried at 4° C. for 3 h. The sections are placed in a FujiFilm Cassette (BAS 2025), exposed with an Imaging Plate for five days and afterwards scanned with a resolution of […].
The signal intensity (Dens-PSL/mm2) in the region of interest (ROI) of the autoradiogram is quantified with the software MCID analysis (version 7.0, Imaging Research Inc.). The specific binding (SB) of [^3H]T808 binding in absence or in presence of a compound is calculated by subtracting the non-specific binding signal in the white matter, thus yielding SB[3H]T808 only and SBcompound. The % displacement by the various compounds is calculated as following: % displacement=100−(SBcompund/SB[3H]T808 only)*100. Validation Data
In each experiment cold T808 is used as a positive internal control. […]

tau aggregates = assay: Autoradiography of tritiated radioligands on human cortical AD brain sections; type: binding; conditions: Braak V staged AD patient
tau aggregates, sequence (P10636 623-695 limits assumed): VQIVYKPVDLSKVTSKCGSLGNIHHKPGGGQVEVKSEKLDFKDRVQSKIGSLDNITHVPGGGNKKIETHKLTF
Description: FIG. 1 is an autoradiogram of [^3H]-2-(4-methoxyphenyl)imidazo[1,2-a]pyridin-7-amine (example 5) incubated with human cortical brain sections obtained from a Braak V staged AD patient. The radioligand concentration was 2.6 nM.
FIG. 2 is an autoradiogram of [^3H]-2-[4-(2-fluoroethoxy)phenyl]imidazo[1,2-a]pyridin-7-amine (example 6) incubated with human cortical brain sections obtained from a Braak V staged AD patient. The radioligand concentration was 2.5 nM.
FIGS. 1 and 2 represent autoradiograms of respectively [[^3H]-2-(4-methoxyphenyl)imidazo[1,2-a]pyridin-7-amine (example 5) and [^3H]-2-[4-(2-fluoroethoxy)phenyl]imidazo[1,2-a]pyridin-7-amine (example 6) incubated with human cortical brain sections obtained from a Braak V staged AD patient. The radioligand concentrations were 2.6 and 2.5 nM, respectively.

## COc1ccc(-c2cn3ccc(N)cc3n2)cc1 [Example 1, 2-(4-Methoxyphenyl)imidazo[1,2-a]pyridin-7-amine]
Native tau aggregates
  % displacement of [^3H]T808 (10 nM) at 10 nM: 67%

## Nc1ccn2cc(-c3ccc(OCF)cc3)nc2c1 [Example 2, 2-(4-(Fluoromethoxy)phenyl)imidazo[1,2-a]pyridin-7-amine]
Native tau aggregates
  % displacement of [^3H]T808 (10 nM) at 10 nM: 51%

## Nc1ccn2cc(-c3ccc(OCCCF)cc3)nc2c1 [Example 3, 2-[4-(3-Fluoropropoxy)phenyl]imidazo[1,2-a]pyridin-7-amine]
Native tau aggregates
  % displacement of [^3H]T808 (10 nM) at 10 nM: 25%

## Nc1ccn2cc(-c3ccc(OCCF)cc3)nc2c1 [Example 4, 2-[4-(2-Fluoroethoxy)phenyl]imidazo[1,2-a]pyridin-7-amine]
Native tau aggregates
  % displacement of [^3H]T808 (10 nM) at 10 nM: 50%

## [^3H]-2-(4-Methoxyphenyl)imidazo[1,2-a]pyridin-7-amine [Example 5]
Tau aggregates; radioligand concentration 2.6 nM (FIG. 1)
  autoradiogram staining pattern: punctate staining of tau aggregates in a layered distribution pattern and a varying degree of non-specific binding in white matter

## [^3H]-2-[4-(2-Fluoroethoxy)phenyl]imidazo[1,2-a]pyridin-7-amine [Example 6]
Tau aggregates; radioligand concentration 2.5 nM (FIG. 2)
  autoradiogram staining pattern: punctate staining of tau aggregates in a layered distribution pattern and a varying degree of non-specific binding in white matter
